pIC50, pKd: −log10 of the molar value. Where two headings read alike, the source gives them in different places.
Experiments:
[1] = test system: human lung cancer strain NCI-H441;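 note: cell proliferation inhibition after four days measured by CellTiter-Glo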
[2] = target: GDP-bound NRAS wild-type protein (Homo sapiens, UniProt P01111); experiment: Binding to NRAS by surface plasmon resonance (SPR), Single Cycle Kinetics; settings: for NRAS/KRAS (ratio of KD value for NRAS to KD value for KRAS): GDP-bound NRAS wild-type protein vs GDP-bound KRAS wild-type protein
[3] = target: GDP-bound KRAS wild-type protein (Homo sapiens, UniProt P01116); experiment: Binding to KRAS by surface plasmon resonance (SPR), Single Cycle Kinetics; settings: GDP-bound KRAS wild-type protein, read-out: KRAS KD
[4] = target: GDP-bound HRAS wild-type protein (Homo sapiens, UniProt P01112); experiment: Binding to HRAS by surface plasmon resonance (SPR), Single Cycle Kinetics; settings: for HRAS/KRAS (ratio of KD value for HRAS to KD value for KRAS): GDP-bound HRAS wild-type protein vs GDP-bound KRAS wild-type protein
Chain of GDP-bound HRAS wild-type protein (P01112 whole entry): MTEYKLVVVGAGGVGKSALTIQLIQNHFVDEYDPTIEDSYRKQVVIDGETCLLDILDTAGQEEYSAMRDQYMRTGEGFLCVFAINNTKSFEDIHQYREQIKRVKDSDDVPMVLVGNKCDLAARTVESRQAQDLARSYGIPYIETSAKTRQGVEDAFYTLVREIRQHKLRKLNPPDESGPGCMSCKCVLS

Chain of GDP-bound NRAS wild-type protein (P01111 whole entry): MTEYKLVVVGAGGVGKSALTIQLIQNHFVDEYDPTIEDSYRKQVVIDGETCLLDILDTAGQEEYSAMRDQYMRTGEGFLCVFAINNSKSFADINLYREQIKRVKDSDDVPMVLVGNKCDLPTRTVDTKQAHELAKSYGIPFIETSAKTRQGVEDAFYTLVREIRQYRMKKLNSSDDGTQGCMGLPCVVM
Chain of GDP-bound KRAS wild-type protein (P01116 whole entry): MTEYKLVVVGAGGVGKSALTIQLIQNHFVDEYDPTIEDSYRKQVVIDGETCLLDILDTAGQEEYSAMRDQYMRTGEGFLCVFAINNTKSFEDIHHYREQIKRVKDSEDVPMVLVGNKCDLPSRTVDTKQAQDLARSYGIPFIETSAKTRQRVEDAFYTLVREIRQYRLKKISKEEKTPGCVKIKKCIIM

## CC[C@H](C)[C@@H]1NC(=O)[C@@H]2CCCCCc3ccc(cc3)C[C@@H](C(=O)N(C)CC(=O)N[C@@H](CCc3ccc(C(F)(F)F)c(OC)c3)C(=O)N3CC4(CC4)C[C@H]3C(=O)NC3(CC(C)(C)C3)C(=O)N(C)[C@@H](C3CCCC3)C(=O)N(C)[C@H](C(=O)N(C)C)CC(=O)N2C)N2CC/C=C\C[C@@H](C2=O)N(C)C(=O)CN(C)C1=O [PP3074]
[1]; read-out: NCI-H441 cell proliferation inhibitory activity, 50% proliferation inhibitory concentration (IC50 value), NCI-H441, four days, CellTiter-Glo
  pIC50: 8.62
[2]; SPR
  NRAS/KRAS (ratio of KD value for NRAS to KD value for KRAS): A (a compound having 10 or more and less than 20 is denoted as A)
[2]; SPR, KD(NRAS)/KD(KRAS)
  ratio of the KD value with respect to GDP-bound NRAS wild-type protein to the KD value with respect to KRAS: A (a compound having 10 or more and less than 20 is denoted as A)
[3]; SPR, Single Cycle Kinetics
  pKd: 10.60
[4]; SPR
  HRAS/KRAS (ratio of KD value for HRAS to KD value for KRAS): A (a compound having 10 or more and less than 20 is denoted as A)
[4]; SPR, KD(HRAS)/KD(KRAS)
  ratio of the KD value with respect to GDP-bound HRAS wild-type protein to the KD value with respect to KRAS: A (a compound having 10 or more and less than 20 is denoted as A)

## CCO[C@@H]1C[C@H]2C(=O)NC3(CCC3)C(=O)N(C)[C@@H](C3CCCC3)C(=O)N(C)[C@H](C(=O)N3CCOCC3)CC(=O)N(C)[C@@H](CC(F)F)C(=O)N[C@@H]([C@@H](C)CC)C(=O)N(C)CC(=O)N(C)[C@H]3CCCCCN(C3=O)[C@@H](Cc3ccc(F)cc3)C(=O)N(C)CC(=O)N[C@@H](CCc3cc(F)c(C(F)(F)F)c(F)c3)C(=O)N2C1 [PP1177]
[1]
  pIC50: 7.49
[2]; SPR
  NRAS/KRAS (ratio of KD value for NRAS to KD value for KRAS): B (a compound having 3 or more and less than 10 is denoted as B)
[3]; SPR, Single Cycle Kinetics
  pKd: 10.09
[4]; SPR
  HRAS/KRAS (ratio of KD value for HRAS to KD value for KRAS): B (a compound having 3 or more and less than 10 is denoted as B)

## CCC(CC)[C@H]1C(=O)N(C)[C@H](C(=O)N(C)C)CC(=O)N(C)[C@@H](CC2CC2)C(=O)N[C@@H]([C@@H](C)CC)C(=O)N(C)CC(=O)N(C)[C@H]2C/C=C\CCN(C2=O)[C@@H](CC2CCC(F)(F)CC2)C(=O)N(C)CC(=O)N[C@@H](CCc2cc(F)c(C(F)(F)F)c(F)c2)C(=O)N2C[C@@H](C)C[C@H]2C(=O)NC2(CC(C)(C)C2)C(=O)N1C [PP2500]
[1]
  pIC50: 6.90
[2]; SPR
  NRAS/KRAS (ratio of KD value for NRAS to KD value for KRAS): A (a compound having 10 or more and less than 20 is denoted as A)
[3]; SPR, Single Cycle Kinetics
  pKd: 8.77
[4]; SPR
  HRAS/KRAS (ratio of KD value for HRAS to KD value for KRAS): A (a compound having 10 or more and less than 20 is denoted as A)

## CCC[C@H]1C(=O)N[C@@H]([C@@H](C)CC)C(=O)N(C)CC(=O)N(C)[C@H]2C/C=C\CCN(C2=O)[C@@H](Cc2ccc(C)cc2)C(=O)N(C)CC(=O)N[C@@H](CCc2cc(F)c(C(F)(F)F)c(F)c2)C(=O)N2C[C@H](OCC)C[C@H]2C(=O)NC2(CC(C)(C)C2)C(=O)N(C)[C@@H](CC(C)(C)C)C(=O)N(C)[C@H](C(=O)N(C)C)CC(=O)N1C [PP2706]
[1]
  pIC50: 8.64
[2]; SPR KD ratio NRAS/KRAS, class symbols
  NRAS/KRAS (ratio of KD value with respect to GDP-bound NRAS wild-type protein to KD value with respect to KRAS): A (a compound having 10 or more and less than 20 is denoted as A)
[3]; SPR Single Cycle Kinetics, 1:1 binding model
  pKd: 10.12
[4]; SPR KD ratio HRAS/KRAS, class symbols
  HRAS/KRAS (ratio of KD value with respect to GDP-bound HRAS wild-type protein to KD value with respect to KRAS): B (a compound having 3 or more and less than 10 is denoted as B)

## CCO[C@@H]1C[C@H]2C(=O)NC3(CCC3)C(=O)N(C)[C@@H](C(CC)CC)C(=O)N(C)[C@H](C(=O)N(C)C)CC(=O)N(C)[C@@H](CC3CCCC3)C(=O)N[C@@H]([C@@H](C)CC)C(=O)N(C)CC(=O)N(C)[C@H]3C/C=C\CCN(C3=O)[C@@H](CC3CCCCC3)C(=O)N(C)CC(=O)N[C@@H](CCc3cc(F)c(C(F)(F)F)c(F)c3)C(=O)N2C1 [PP1430]
[1]
  pIC50: 7.15
[2]; SPR, KD ratio class
  NRAS/KRAS (ratio of KD value for NRAS to KD value for KRAS): A (a compound having 10 or more and less than 20 is denoted as A)
[3]; SPR, Single Cycle Kinetics, 1:1 binding model
  pKd: 9.07
[4]; SPR, KD ratio class
  HRAS/KRAS (ratio of KD value for HRAS to KD value for KRAS): A (a compound having 10 or more and less than 20 is denoted as A)
